Laboratory results from US20140221472A1, “USE OF MYRICETIN OR DERIVATIVES THEREOF AS A CATHEPSIN K INHIBITOR” (JILINSHENG JINZIYUAN BIOTECHNOLOGY LTD, priority 2013, published 2014).

What was measured:
[1] = system: type II collagen-induced arthritis mice; assay: Bovine type II collagen-induced arthritis in mice; type: in vivo
Experimental: Firstly, same strains and sources of animals as shown in Example 2 were selected, and total 105 of 9-week-old BALB / C mice were fed under the same conditions. There were 70 mice that each had subcutaneous injection of 200 ug of Freund's adjuvant emulsified bovine type II collagen. 15 days after the first immunization, subcutaneous injection was applied again at 200 ug per mouse with incomplete Freund's adjuvant emulsified bovine type H collagen to strengthen the immunity. After 24 days of the first injection, the 70 mice were divided into two groups, of which 35 mice were treated with myricetin intake orally 25 mg/kg body weight daily as a treated-group, while the other 35 were the model control group fed normally without myricetin. The remaining 35 mice were the normal control group without immunization and fed with normal food, used as a blank control.
Throughout the testing period, arthritis conditions of the mice and arthritic conditions after the treatment were observed. After immunization with type II collagen on mice, the conventional methods were used by measuring the degree of paw swelling (thickness) (see FIG. 3) and weight change (see FIG. 4), and myricetin therapeutic effects were monitored and evaluated throughout the procedure (0.5 mm increased thickness for one magnitude) (see FIG. 5).
On the 48 day, the blood from the heart was extracted, and the serum was separated, meanwhile all mice were killed. The mouse urinary deoxypyridinoline (urinary deoxypyridinoline) (see FIG. 6), type I collagen C telopeptide (CTX-I) (see FIG. 7) and serum cartilage oligomeric matrix protein (COMP) were examined, and histological treatment evaluation were conducted (see FIG. 8).
The mouse urinary deoxypyridinolineideoxypyridinoline kit (DPD kit from Shanghai Huyu Biotech Co., Ltd., No. HY-E3170B) was used. According to the instructions provided, iMark-BIO-RAD microplate reader (U.S. BIO-RAD) was used to detect the concentration of mouse urinary deoxypyridinoline at 450 wavelength (see FIG. 6).
Rat C-terminal peptide of type I collagen (CTX-I) ELISA Kit from Shanghai Jima Biotech Co., Ltd., NO Wk30026) was used. According to the method provided by the kit instruction, the change in the content of type I collagen C-terminal peptide in mice serum was detected to evaluate the effect that myricetin prevented type I collagen degradation by suppressing cathepsin K (see FIG. 7).
The cartilage oligomeric matrix protein ELISA kit (from Shanghai Yihan Biotech Co., Ltd., No. SU10580) was used.
After killing of the mice, the paws were fixed with 4% formaldehyde for 24 hours, then decalcificated using 500 mmol of EDTA […]. The paraffin sections were prepared using the conventional method and stained with hematoxylin / eosin staining method. […] The synovial surface almost disappeared with a rough surface in a grid pattern, and there were a large number of macrophages. […] It can be concluded that by myricetin therapeutic administration, the mice arthritis is mostly recovered (see FIG. 9).
Based on mice joint tissue sections, according to methods from Larsson et. al. (Rheumatology (Oxford), 2004, 43 (4),428-434),the therapeutic effect of myricetin on rheumatoid arthritis in mice was evaluated, as well as the degree of arthritis. Main evaluation were based on: (1) the size of the joint cavity, inflammatory cell infiltration, cartilage damage and fibrin deposition. From three individual evaluations, it was divided into three levels, which are 0 for normal, level 1 for the light degree of arthritis, level 2 for the moderate arthritis and level 3 for severe arthritis (see FIGS. 3 and 5). (2) The weight change (see FIG. 4). (3) histology examination (see FIG. 9) and evaluation (see FIGS. 10 and 11).

[2] = left in air; becomes green; cited from earlier work
cathepsin K [3] = biological target: T1, cathepsin K (Homo sapiens, UniProt P43235); assay: Cathepsin K activity with fluorogenic substrate HD-Ala-Leu-Lys-AMC; type: biochemical; parameters: made in house; settings: 100,200,500,1000 uM; fluorescence 390/460 nm; effect enhanced as concentration increased
T1 sequence (P43235 115-329): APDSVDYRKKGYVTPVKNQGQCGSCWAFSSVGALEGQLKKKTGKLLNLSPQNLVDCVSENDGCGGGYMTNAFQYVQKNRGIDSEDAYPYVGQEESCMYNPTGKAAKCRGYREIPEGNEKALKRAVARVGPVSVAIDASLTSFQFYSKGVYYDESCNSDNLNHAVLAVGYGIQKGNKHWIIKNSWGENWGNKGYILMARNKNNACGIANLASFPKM
Experimental: Using a Fluoroskan Ascent, recombinant cathepsin K inhibition ratios with different concentration of myricetin were calculated after completion of the reaction and the IC50 value was determined.
In order to determine the inhibitory effect of myricetin on cathepsin K activity, a cathepsin. K specific fluorogenic substrate HD-Ala-Leu-Lys-AMC (Cat. No. 104881-72-3, purchased from GL Biochem (Shanghai) Co., Ltd.) was used and Cary Eclipse fluorescence spectrophotometer (Agilent Technologies Inc., Beijing) for quantitative analysis was applied. 1 ug of cathepsin K-specific fluorogenic substrate HD-ALK-AMC, 1 ug cathepsin K, myricetin compounds dissolved in 20% ethanol with final concentrations of 100,200,500,1000 uM were added into 50 mM of phosphate buffer. An additional 50 mM of phosphate buffer (pH6.0) was added to bring a total volume of 500 uL. And the reaction sample was inhibited at 37° C. for 15 hours in a water bath. As a positive control without any candidate compound, 1 ug of cathepsin K specific fluorogenic substrate HD-ALK-AMC and 1 ug of cathepsin K, and 50 mmol phosphate buffer solution (pH6.0) were added to bring a total volume of 500 uL. […] After completion of the reaction, the samples were measured at 390 nm excitation wavelength and 460 nm emission wavelength for fluorescence intensity changes assay, and the value of cathepsin K activity was calculated.

BALB/C mice = assay: Maximum tolerated dose acute toxicity test; type: in vivo; settings: 100 g/kg body weight, single gavage, observed 2 weeks
Source text: BALB/C mice were bred by Harbin Veterinary Research Institute of Experimental Animal Center, Chinese Academy of Agricultural Sciences, and the animal quality permit number is Heilongjiang-SYXK 2006-032. The selection conditions are age at 9 weeks to 10 weeks, weighing about 20 g, half male and half female.
The animal laboratory had regular air ventilation, good lighting, and constant laboratory room temperature. There were five mice per cage, and they were fed with extruded feed produced specifically for mice, with free access to drinking water.
Firstly, the acute toxicity tests were conducted on to evaluate the safety of myricetin in order to provide the basis for the therapeuticapplication of myricetin. In this study, the maximum tolerated dose acute toxicity test was used. Twenty of BALB/C mice with the healthy body weight about 20 g, half male and half femalewere selected, The clinical intended route of administration is oral, so this experiment used intragastric administration. Myricetin (purchased from Shanghai Chemical Co., Ltd. Item No. A0145, Myricetin; 3,5,7,3,4′,5′-hexahydroxyflavone, CAS No: 529-44-2. Pure and natural extracts, purity ismore than 98.5% confirmed by NMR and HPLC purity analysis) was modulated into a stick-like with distilled water. Dosed at […] body weight, gavage was conducted to the mice (about 200 mg myricetin per mouse). […]

cathepsin K [4] = biological target: T1, cathepsin K; assay: Cathepsin K induced collagen degradation, SDS-PAGE screening; type: biochemical; parameters: made in house; host or cells: yeast cells (the cited Linnevers et al. method uses Pichia pastoris); settings: 100 uM myricetin, collagen type I/II substrate, pH 6.0, 37° C., 15 hours
Source text: A series of Chinese herbal medicine of monomer myricetin were purchased from Shanghai Jingke Chemical Co., Ltd.,(Cat. No. A0145, 3,5,7,3′, 4′, 5′-hexahydroxyflavone, CAS No: 529-44-2). It was purified from natural plant (the purity is more than 98.5% confirmed by NMR and HPLC purity assay) and was used as an inhibitor candidate compound. Meanwhile, collagen type I (Cat No. SU2087) and collagen type II (Cat No. SU2088) were purchased from SIGMA and were used as a substrate for cathepsin K. For screening experiments, […] and 1 ug cathepsin K were added into 50 mM phosphate buffer (pH6.0), then myricetin compounds dissolved in 20% ethanol were added with the final concentrations of 100,200,500,1000 uM, respectively, finally an additional 50 mM of phosphate buffer (pH 6.0) was added again to bring a total volume of 500 uL. The reactions were incubated at 37° C. for 15 hours in a water bath. As a positive control without any candidate compound, 100 ug collagen, […], and 50 mM phosphate buffer solution (pH6.0) were added to bring a total volume of 500 uL. […] After completion of the reactions, the reaction samples were applied to 10% SDS-PAGE gel electrophoresis, coomassie blue staining and destaining, and the intensity of the stained protein bands were analyzed. […]

[5] = cited from earlier work

O=c1c(O)c(-c2cc(O)c(O)c(O)c2)oc2cc(O)cc(O)c12 [myricetin, 3,5,7-Trihydroxy-2-(3,4,5-trihydroxyphenyl)-4H-1-benzopyran-4-one]
arthritis symptoms (paw swelling, clinical score) ([1]; 25 mg/kg daily orally from day 24 to 48, vs immunized mice): significantly improved | degree of arthritis ([1]; 25 mg/kg p.o., compared with the model group, P<0.05): significantly reduced | concentration of urinary deoxypyridinoline ([1]; 25 mg/kg p.o., day 48, ELISA, vs control group, P<0.001): significantly lower | content of type I collagen C-terminal peptide in mice serum ([1]; 25 mg/kg p.o., day 48, ELISA, vs model control group, P<0.001): significantly lower | content of cartilage oligomeric matrix protein in mice serum ([1]; 25 mg/kg p.o., day 48, ELISA, vs model control group, P<0.005): significantly lower | synovial surface pathological changes (histology) ([1]; 25 mg/kg p.o., day 48, hematoxylin/eosin paw sections): significantly reduced pathological changes | focal hyperplasia of the synovial lining cells ([1]; end of study, ankle joint sections, hematoxylin and eosin, FIG. 9): undetectable | hind leg swelling and redness with ankle joint thickening ([1]; end of study, representative photographs, FIG. 9): attenuated | stability to oxidation [2]: easily oxidized | inhibitory effect on cathepsin K activity (cathepsin K [3]): significant inhibitory effect | symptoms of poisoning and death (BALB/C mice): free of any symptoms of poisoning | inhibition of the cathepsin K activity (collagen degradation) (cathepsin K [4]): complete inhibition | solubility in chloroform and petroleum ([5]; chloroform and petroleum): insoluble | solubility in methanol, ethanol, aceton, ethyl acetate ([5]; methanol, ethanol, aceton, ethyl acetate): soluble | solubility in water ([5]; water): slightly soluble
